Data: patent publication US5756423A, “Method of controlling plants by inhibition of farnesyl pyrophosphate synthase” (Zeneca Limited, priority 1997, dated 1998)
Like-named read-outs stand apart in the source and are kept apart here.

Columns and labels:
[1] = tested on: velvetleaf (Abutilon theophrasti) (ABUTH); assay: post-emergent herbicidal test, velvetleaf; assay type: in vivo; settings: Abutilon theophrasti, post-emergence, post-emergent, 17-21 days after application, read-out: ABUTH percent control; for pest or weed control at 4000 g/ha: 4.0 kg/ha; for pest or weed control at 1000 g/ha: 1.0 kg/ha (*)
Method in brief: (§1)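 Seedlings grown in sandy loam in a greenhouse (29/21 °C day/night, 14 h light) were sprayed post-emergence at 1 or 4 kg/ha in water with 0.5% Tween 20; grasses at 3–4 leaf, broadleaves at 1–2 leaf. Percent control versus untreated flats (0–100%) was rated 17–21 days later.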

[2] = tested on: morningglory (Ipomoea spp.) (IPOSS); assay: post-emergent herbicidal test, morningglory; assay type: in vivo; settings: Ipomoea, post-emergence, post-emergent, 17-21 days after application, read-out: IPOSS percent control; for pest or weed control at 4000 g/ha: 4.0 kg/ha; for pest or weed control at 1000 g/ha: 1.0 kg/ha (*)
Method in brief: as §1

[3] = tested on: green foxtail (Setaria viridis) (SETVI); assay: post-emergent herbicidal test, green foxtail; assay type: in vivo; settings: Setaria viridis, post-emergence, post-emergent, 17-21 days after application, read-out: SETVI percent control; for pest or weed control at 4000 g/ha: 4.0 kg/ha; for pest or weed control at 1000 g/ha: 1.0 kg/ha (*)
Method in brief: as §1

[4] = tested on: wild mustard (Brassica kaber), also known as Sinapis arvensis (SINAR); assay: post-emergent herbicidal test, wild mustard; assay type: in vivo; settings: Brassica, post-emergence, post-emergent, 17-21 days after application, read-out: SINAR percent control; for pest or weed control at 4000 g/ha: 4.0 kg/ha; for pest or weed control at 1000 g/ha: 1.0 kg/ha (*)
Method in brief: as §1

[5] = tested on: barnyard grass (Enchinochloa crusgalli) (ECHCG); assay: post-emergent herbicidal test, barnyard grass; assay type: in vivo; settings: Echinochloa crus-galli, post-emergence, post-emergent, 17-21 days after application, read-out: ECHCG percent control; for pest or weed control at 4000 g/ha: 4.0 kg/ha; for pest or weed control at 1000 g/ha: 1.0 kg/ha (*)
Method in brief: as §1

[6] = tested on: yellow nutsedge (Cyperus esculentus) (CYPES); assay: post-emergent herbicidal test, yellow nutsedge; assay type: in vivo; settings: Cyperus, post-emergence, post-emergent, 17-21 days after application, read-out: CYPES percent control; for pest or weed control at 4000 g/ha: 4.0 kg/ha; for pest or weed control at 1000 g/ha: 1.0 kg/ha (*)
Method in brief: as §1

[7] = tested on: wild oat (Avena fatua) (AVEFA); assay: post-emergent herbicidal test, wild oat; assay type: in vivo; settings: Avena fatua, post-emergence, post-emergent, 17-21 days after application, read-out: AVEFA percent control; for pest or weed control at 4000 g/ha: 4.0 kg/ha; for pest or weed control at 1000 g/ha: 1.0 kg/ha (*)
Method in brief: as §1

[8] = tested on: farnesyl pyrophosphate synthase in daffodil chromoplasts; assay: inhibition of farnesyl pyrophosphate synthase in daffodil chromoplasts (14C-isopentenyl pyrophosphate incorporation); assay type: biochemical, Narcissus pseudonarcissus; settings: unit inferred, IC50 values in nM, read-out: IC50
Method in brief: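 Daffodil chromoplasts in pH 7.7 sucrose/MgCl2/HEPES buffer with cysteine, NaF and BSA, started with ~3 micromolar 14C-isopentenyl pyrophosphate, 30 min at 30° C. Butanol-extractable radioactivity counted by scintillation; % residual activity calculated against zero-time and end-point no-inhibitor controls.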

Structure (SMILES) | IC50 ([8]; Table I) | IC50 ([8]; Table II) | pest or weed control at 4000 g/ha [1] | pest or weed control at 4000 g/ha [2] | pest or weed control at 4000 g/ha [3] | pest or weed control at 4000 g/ha [4] | pest or weed control at 4000 g/ha [5] | pest or weed control at 4000 g/ha [6] | pest or weed control at 4000 g/ha [7] | pest or weed control at 1000 g/ha [1] | pest or weed control at 1000 g/ha [2] | pest or weed control at 1000 g/ha [3] | pest or weed control at 1000 g/ha [4] | pest or weed control at 1000 g/ha [5] | pest or weed control at 1000 g/ha [6] | pest or weed control at 1000 g/ha [7]
Cc1cccnc1NCC(P(=O)(O)O)P(=O)(O)O [Compound 31] | 6600 nM | 6600 nM | 0% | 0% | 0% | 0% | 0% | 0% | 0% |  |  |  |  |  |  | 
CCCN(C)CC(P(=O)(O)O)P(=O)(O)O [Compound 32] | 27 nM | 27 nM |  |  |  |  |  |  |  | 75% | 85% | 100% | 100% | 95% | 25% | 100%
CC(C)N(C)CC(P(=O)(O)O)P(=O)(O)O [Compound 33] | 178 nM | 178 nM |  |  |  |  |  |  |  | 50% | 65% | 95% | 100% | 100% | 10% | 100%
C=C(C)CNCC(P(=O)(O)O)P(=O)(O)O [Compound 34] | 31 nM | 31 nM |  |  |  |  |  |  |  | 60% | 60% | 95% | 100% | 95% | 15% | 95%

More lines, main results first:

IC50 ([8]; Table I) | IC50 ([8]; Table II) | Structure (SMILES) | pest or weed control at 4000 g/ha [1] | pest or weed control at 4000 g/ha [2] | pest or weed control at 4000 g/ha [3] | pest or weed control at 4000 g/ha [4] | pest or weed control at 4000 g/ha [5] | pest or weed control at 4000 g/ha [6] | pest or weed control at 4000 g/ha [7] | pest or weed control at 1000 g/ha [1] | pest or weed control at 1000 g/ha [2] | pest or weed control at 1000 g/ha [3] | pest or weed control at 1000 g/ha [4] | pest or weed control at 1000 g/ha [5] | pest or weed control at 1000 g/ha [6] | pest or weed control at 1000 g/ha [7]
520 nM | 520 nM | CC1CC(C)CN(CC(P(=O)(O)O)P(=O)(O)O)C1 (stereo not drawn) [Compound 35] |  |  |  |  |  |  |  | 0% | 30% | 50% | 25% | 15% | 0% | 98%
> 500000 nM | > 500000 nM | O=P(O)(O)C(CNNc1c(Cl)cc(C(F)(F)F)cc1Cl)P(=O)(O)O [Compound 36] | 0% | 0% | 0% | 0% | 0% | 0% | 0% |  |  |  |  |  |  | 
53 nM | 53 nM | C=CCN(CC=C)CC(P(=O)(O)O)P(=O)(O)O [Compound 37] |  |  |  |  |  |  |  | 10% | 15% | 100% | 98% | 95% | 10% | 95%
124 nM | 124 nM | CCCN(CC)CC(P(=O)(O)O)P(=O)(O)O [Compound 38] |  |  |  |  |  |  |  | 70% | 90% | 100% | 100% | 100% | 10% | 100%
380 nM | 380 nM | O=P(O)(O)C(CNCC(F)(F)F)P(=O)(O)O [Compound 39] |  |  |  |  |  |  |  | 0% | 0% | 5% | 0% | 0% | 0% | 20%
88 nM | 88 nM | C=CCN(CC)CC(P(=O)(O)O)P(=O)(O)O [Compound 40] |  |  |  |  |  |  |  | 10% | 10% | 80% | 95% | 90% | 10% | 85%
